Numbered stars: 1 amine (or outer) side, 2 acyl side, 3 side chain; on linkers, the order of the positions; unused ones are H or OH. Square brackets hold non-standard residues; d marks the D form. Side chains are listed from the residue outwards. Peptide text beside a SMILES is read from it. * marks the point of attachment. C20 diacid = O=C(O)CCCCCCCCCCCCCCCCCCC(=O)*; γGlu = O=C(O)[C@H](CCC(=O)[*:2])N[*:1]; 1Nal = N[C@@H](Cc1cccc2ccccc12)C(=O)O; AEEA = NCCOCCOCC(=O)O; Aib = CC(C)(N)C(=O)O
Key:
human GLP-1R = target: T1, human GLP-1R (Homo sapiens, UniProt P43220); assay: Functional hGLP-1R cAMP assay in HEK-293 clonal cells; format: cell-based; conditions: HEK293; percent of maximal response of hGLP-1(7-36)NH2
T1 construct: expressed in transfected cells; host or cells: 293HEK, Hygromycin-selected; crude plasma membranes
T1 sequence (P43220 24-463): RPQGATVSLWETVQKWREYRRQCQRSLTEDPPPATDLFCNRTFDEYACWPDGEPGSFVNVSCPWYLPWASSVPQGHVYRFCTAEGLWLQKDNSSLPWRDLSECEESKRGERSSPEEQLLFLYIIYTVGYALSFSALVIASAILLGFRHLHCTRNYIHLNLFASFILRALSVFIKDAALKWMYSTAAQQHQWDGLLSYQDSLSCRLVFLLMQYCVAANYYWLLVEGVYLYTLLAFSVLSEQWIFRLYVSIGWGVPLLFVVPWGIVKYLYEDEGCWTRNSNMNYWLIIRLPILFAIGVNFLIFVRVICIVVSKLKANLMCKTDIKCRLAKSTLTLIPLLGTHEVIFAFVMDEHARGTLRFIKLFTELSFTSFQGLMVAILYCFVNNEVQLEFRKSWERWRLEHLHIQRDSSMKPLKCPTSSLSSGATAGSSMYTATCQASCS
Protocol: After an incubation of 60 minutes at room temperature, the resulting increase in intracellular cAMP is quantitatively determined using the CisBio cAMP Dynamic 2 HTRF Assay Kit (Bedford, Mass.). Briefly, cAMP levels within the cell are detected by adding the cAMP-d2 conjugate in cell lysis buffer (20 μl) followed by the antibody anti-cAMP-Eu^3+-Cryptate, also in cell lysis buffer (20 μl). The resulting competitive assay is incubated for at least 60 minutes at room temperature, then detected using a PerkinElmer Envision® instrument with excitation at 320 nm and emission at 665 nm and 620 nm Envision units (emission at 665 nm/620 nm*10,000) are inversely proportional to the amount of cAMP present and are converted to nM cAMP per well using a cAMP standard curve. […] A relative EC50 value and percent top (Emax) is derived by non-linear regression analysis using the percent maximal response versus the concentration of the compound of the present invention, fitted to a four-parameter logistic equation.

[1] = Pharmacokinetics in cynomolgus monkeys; format: in vivo; conditions: cynomolgus monkey, plasma, single SC 0.2 mg/kg, male monkeys, n = 2
Protocol: The compounds are administered by a single intravenous or subcutaneous dose (0.2 mg/kg) in 20 mM citrate buffer (pH 7.0) at a volume of 0.21 ml/kg. Blood is collected from each animal at 2, 4, 8, 12, 24, 48, 72, 96, 120, 144, 168, 204, 240, and 312 hours post-dosage. The plasma concentrations of compounds of the present invention are determined by a LC/MS method. Briefly, a compound of the present invention is extracted from 100% Monkey plasma sample (50 μl) diluted with 1×PBS (150 μl) and mixed with N-butanol (400 μl). Three distinct liquid layers are formed with the compound located in the top layer. A volume of 200 μl is transferred to a v-bottom 96-well plate, dried down using heated Nitrogen gas and reconstituted with 100 μl of 30% acetonitrile/0.1% formic acid. 20 μl of the reconstituted sample is injected onto a Supelco Analytical Discovery bio wide C5 3 μm column. The column effluent is directed into a Thermo Q-Exactive mass spectrometer for detection and quantitation.

Human GCGR = Human GCGR (Homo sapiens, UniProt P47871); assay: Functional hGCGR cAMP assay in HEK-293 clonal cells
Human GCGR, sequence (P47871 26-477): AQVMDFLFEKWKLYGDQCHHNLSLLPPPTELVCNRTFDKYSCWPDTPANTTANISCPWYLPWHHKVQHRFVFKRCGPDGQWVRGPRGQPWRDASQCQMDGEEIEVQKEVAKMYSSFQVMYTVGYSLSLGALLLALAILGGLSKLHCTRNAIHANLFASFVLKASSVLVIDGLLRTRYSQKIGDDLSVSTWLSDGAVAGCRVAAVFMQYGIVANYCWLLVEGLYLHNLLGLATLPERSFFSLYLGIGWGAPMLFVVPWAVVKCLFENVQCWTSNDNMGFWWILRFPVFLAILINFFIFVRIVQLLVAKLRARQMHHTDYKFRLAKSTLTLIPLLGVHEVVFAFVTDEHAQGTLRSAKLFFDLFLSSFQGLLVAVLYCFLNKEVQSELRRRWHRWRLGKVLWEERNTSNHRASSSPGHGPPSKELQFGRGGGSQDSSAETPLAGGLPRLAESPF

human GIP-R = target: T2, human GIP-R (Homo sapiens, UniProt P48546); assay: Functional hGIP-R cAMP assay in HEK-293 clonal cells; conditions: HEK293, read-out: Human GIP-R Emax
T2 sequence (P48546 22-466): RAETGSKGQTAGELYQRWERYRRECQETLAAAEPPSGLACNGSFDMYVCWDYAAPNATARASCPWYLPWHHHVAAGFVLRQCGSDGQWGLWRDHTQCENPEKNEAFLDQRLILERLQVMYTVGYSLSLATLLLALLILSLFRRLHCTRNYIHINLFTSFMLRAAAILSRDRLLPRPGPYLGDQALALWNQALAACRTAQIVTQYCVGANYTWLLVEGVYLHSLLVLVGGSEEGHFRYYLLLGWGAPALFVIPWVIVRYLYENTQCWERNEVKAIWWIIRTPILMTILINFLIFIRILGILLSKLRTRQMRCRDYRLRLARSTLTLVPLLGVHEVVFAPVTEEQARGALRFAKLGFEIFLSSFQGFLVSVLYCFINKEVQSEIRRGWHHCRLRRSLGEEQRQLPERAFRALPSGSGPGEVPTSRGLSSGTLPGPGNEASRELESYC

[2] = Rat in vivo insulin secretion following intravenous glucose (IVGTT); conditions: s.c. 16 hour prior to glucose
Protocol: Male Wistar rats (Harlan Labs, Indianapolis, Ind.) are randomized by body weight and dosed 1.5 ml/kg s.c. 16 hour prior to glucose administration and then fasted. Doses are vehicle, 0.1, 0.3, 1, 3 and 10 nmol/kg. Animals are weighed, and then anesthetized with sodium pentobarbital (Nembutal Sodium solution; Ovation Pharmaceuticals) dosed i.p. (65 mg/kg, 30 mg/ml). A time zero blood sample is collected into EDTA tubes after which glucose is administered ([…], 5 ml/kg). Blood samples are collected at 2, 4, 6, 10, 20, and 30 minutes post glucose. Plasma glucose levels are determined using a Hitachi analyzer (Roche) and plasma insulin is measured by the MSD insulin assay (Meso Scale, Gaithersburg, Md.).

[3] = Weight loss, body composition and hepatic steatosis in DIO mice; format: in vivo, mouse; conditions: for Blood Glucose: Day 15
Protocol: The effects on weight loss, body composition and hepatic steatosis in DIO mice for compounds of the present invention are evaluated in C57/BL6 DIO mice. […] Animals are individually housed in a temperature-controlled (24° C.) facility with a 12 hour light/dark cycle (lights on 22:00), and free access to food and water. […] Daily body weight and food intake are measured throughout the study. Absolute changes in body weight are calculated by subtracting the body weight of the same animal prior to the first injection of compound. […] On Day 15, blood glucose is measured with Accu-Chek glucometer (Roche) from tail vein blood and then animals may be sacrificed and livers removed and frozen. Liver triglycerides, determined from homogenates of livers collected at sacrifice, and plasma cholesterol are measured on a Hitachi Modular P clinical analyzer. Statistical comparisons between groups are done using one-way ANOVA followed by Dunnett's multiple comparison test. The ED50 for weight loss lowering is determined in GraphPad Prism using the non-linear fit tool.

`CC[C@H](C)[C@H](NC(=O)[C@H](CC(C)C)NC(=O)[C@H](Cc1c[nH]c2ccccc12)NC(=O)[C@H](CCC(N)=O)NC(=O)[C@@H](NC(=O)[C@H](Cc1cccc2ccccc12)NC(=O)[C@H](C)NC(=O)[C@H](CCCCNC(=O)COCCOCCNC(=O)COCCOCCNC(=O)CC[C@H](NC(=O)CC[C@H](NC(=O)CCCCCCCCCCCCCCCCCCC(=O)O)C(=O)O)C(=O)O)NC(=O)[C@H](CCC(N)=O)NC(=O)[C@H](C)NC(=O)[C@@H](NC(=O)[C@H](CCCCN)NC(=O)[C@H](CC(=O)O)NC(=O)[C@H](CC(C)C)NC(=O)C(C)(C)NC(=O)[C@@H](NC(=O)[C@H](CO)NC(=O)[C@H](Cc1ccc(O)cc1)NC(=O)[C@H](CC(=O)O)NC(=O)[C@H](CO)NC(=O)[C@@H](NC(=O)[C@H](Cc1ccccc1)NC(=O)[C@@H](NC(=O)CNC(=O)[C@H](CCC(=O)O)NC(=O)C(C)(C)NC(=O)[C@@H](N)Cc1ccc(O)cc1)[C@@H](C)O)[C@@H](C)O)[C@@H](C)CC)[C@@H](C)CC)C(C)C)C(=O)N[C@@H](C)C(=O)NCC(=O)NCC(=O)N1CCC[C@H]1C(=O)N[C@@H](CO)C(=O)N[C@@H](CO)C(=O)NCC(=O)N[C@@H](C)C(=O)N1CCC[C@H]1C(=O)N1CCC[C@H]1C(=O)N1CCC[C@H]1C(=O)N[C@@H](CO)C(N)=O` [Example 2] (H-Y[Aib]EGTFTSDYSI[Aib]LDKIAQK([AEEA-AEEA-γGlu-γGlu-C20 diacid])A[1Nal]VQWLIAGGPSSGAPPPS-NH2) showed an Emax (human GLP-1R) of 98.2 ± 5.5%, a CL/F [1] of 1.2 mL/h/kg and a Cmax [1] of 2100 ng/mL. The AUC(0-inf) ([1]; read-out: Mean AUC0-inf) was 173 µg·h/mL, the half-life ([1]; read-out: Mean T1/2 (converted)) was 43 h and the Tmax ([1]; read-out: Mean Tmax) was 24 h. For the same molecule, the EC50 (Human GCGR) was over 1000 nM and the Emax (human GIP-R) was 94.7 ± 2%.
With `CC[C@H](C)[C@H](NC(=O)[C@H](CC(C)C)NC(=O)[C@H](Cc1c[nH]c2ccccc12)NC(=O)[C@H](CCC(N)=O)NC(=O)[C@@H](NC(=O)[C@H](Cc1ccccc1)NC(=O)[C@H](C)NC(=O)[C@H](CCCCNC(=O)COCCOCCNC(=O)COCCOCCNC(=O)CC[C@H](NC(=O)CC[C@H](NC(=O)CCCCCCCCCCCCCCCCCCC(=O)O)C(=O)O)C(=O)O)NC(=O)[C@H](CCC(N)=O)NC(=O)[C@H](C)NC(=O)[C@@H](NC(=O)[C@H](CCCCN)NC(=O)[C@H](CC(=O)O)NC(=O)[C@H](CC(C)C)NC(=O)C(C)(C)NC(=O)[C@@H](NC(=O)[C@H](CO)NC(=O)[C@H](Cc1ccc(O)cc1)NC(=O)[C@H](CC(=O)O)NC(=O)[C@H](CO)NC(=O)[C@@H](NC(=O)[C@H](Cc1ccccc1)NC(=O)[C@@H](NC(=O)CNC(=O)[C@H](CCC(=O)O)NC(=O)C(C)(C)NC(=O)[C@@H](N)Cc1ccc(O)cc1)[C@@H](C)O)[C@@H](C)O)[C@@H](C)CC)[C@@H](C)CC)C(C)C)C(=O)N[C@@H](C)C(=O)NCC(=O)NCC(=O)N1CCC[C@H]1C(=O)N[C@@H](CO)C(=O)N[C@@H](CO)C(=O)NCC(=O)N[C@@H](C)C(=O)N1CCC[C@H]1C(=O)N1CCC[C@H]1C(=O)N1CCC[C@H]1C(=O)N[C@@H](CO)C(N)=O` [Example 5] the Emax (human GLP-1R) was 105 ± 4%, the “% max increase of insulin AUC” value [2] was 349 +/− 39% and the “ED50 for insulin, rat IVGTT” value [2] was 1.02 nmol/kg. The “% Change from starting body weight” value ([3]; Table 9, 10 nmol/kg) was −23.42 ± 1.43 %, the “% Change from starting fat mass” value ([3]; Table 9, 10 nmol/kg) was −51.28 ± 1.89 % and the “% Change from starting body weight” value ([3]; Table 9, 30 nmol/kg) was −26.84 ± 3.14 %. For the same molecule, the “% Change from starting fat mass” value ([3]; Table 9, 30 nmol/kg) was −62.77 ± 5.49 %, the “% Change from starting body weight” value ([3]; Table 9, 100 nmol/kg) was −37.86 ± 2.25 % and the “% Change from starting fat mass” value ([3]; Table 9, 100 nmol/kg) was −81.08 ± 1.68 %. For the same molecule, the “Liver Triglycerides” value ([3]; Table 12, 10 nmol/kg) was 48.30 ± 8.14 mg/g tissue, the “Plasma Cholesterol” value ([3]; Table 12, 10 nmol/kg) was 126.6 ± 9.67 mg/dL and the “Blood Glucose” value ([3]; Table 12, 10 nmol/kg) was 111.00 ± 6.56 mg/dL. The “Liver Triglycerides” value ([3]; Table 12, 30 nmol/kg) was 39.60 ± 4.71 mg/g tissue, the “Plasma Cholesterol” value ([3]; Table 12, 30 nmol/kg) was 108.2 ± 13.84 mg/dL and the “Blood Glucose” value ([3]; Table 12, 30 nmol/kg) was 104.5 ± 5.30 mg/dL. For the same molecule, the “Liver Triglycerides” value ([3]; Table 12, 100 nmol/kg) was 67.96 ± 13.53 mg/g tissue, the “Plasma Cholesterol” value ([3]; Table 12, 100 nmol/kg) was 108.6 ± 4.83 mg/dL and the “Blood Glucose” value ([3]; Table 12, 100 nmol/kg) was 105.3 ± 6.16 mg/dL. The EC50 (Human GCGR) was over 1000 nM and the Emax (human GIP-R) was 105 ± 2%.

— US9474780B2, “GIP and GLP-1 co-agonist compounds” (Eli Lilly and Company, priority 2015, dated 2016)
